Activity calls are given as the source filed them. No cut-off for these calls is given here. A value given as a limit tells only on which side of the number the result lay.

Data set [1] deals with T1, Tyrosine-protein phosphatase non-receptor type 1 (Homo sapiens, UniProt P18031).
T1 sequence (P18031 whole entry): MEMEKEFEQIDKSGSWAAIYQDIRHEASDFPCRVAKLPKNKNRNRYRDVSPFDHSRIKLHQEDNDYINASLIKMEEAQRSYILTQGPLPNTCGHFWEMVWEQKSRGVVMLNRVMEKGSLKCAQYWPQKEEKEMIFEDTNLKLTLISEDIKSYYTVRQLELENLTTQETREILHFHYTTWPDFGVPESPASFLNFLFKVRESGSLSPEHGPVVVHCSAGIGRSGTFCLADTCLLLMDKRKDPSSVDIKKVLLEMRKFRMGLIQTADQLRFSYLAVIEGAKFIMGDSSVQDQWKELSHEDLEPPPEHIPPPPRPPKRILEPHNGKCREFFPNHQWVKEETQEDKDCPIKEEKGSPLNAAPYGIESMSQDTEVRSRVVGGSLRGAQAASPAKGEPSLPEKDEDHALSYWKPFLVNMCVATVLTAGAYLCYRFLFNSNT
Put plainly: Inhibition of recombinant human PTP1B (1 to 321 residues) expressed in Escherichia coli using p-nitrophenyl phosphate as substrate incubated for 30 mins.

Data set [2] has as its target T2, Tyrosine-protein phosphatase non-receptor type 1 (Homo sapiens) (UniProt P18031).
T2 sequence (whole entry): T1 sequence (P18031 whole entry)
Nature of the data set: Inhibition of recombinant human PTP1B (1 to 321 residues) expressed in Escherichia coli at 10 uM using p-nitrophenyl phosphate as substrate incubated for 30 mins relative to control.

The species entered for a further data set is Homo sapiens. Put plainly: Inhibition of alpha-Glucosidase (unknown origin) at 10 uM using pNPG as substrate incubated for 30 mins relative to control.
Data set [3] is described as follows: Cytotoxicity against human insulin resistant HepG2 cells assessed as cell viability at 10 uM by CCK8 assay relative to control. Type of data set: cell-based. As to conditions: read-out: Activity. (Tetrazolium dyes change colour on reduction, which living cells bring about.)
A short description of data set [4]: Inhibition of alpha-Glucosidase (unknown origin) using pNPG as substrate incubated for 30 mins. Further details: species or system Homo sapiens.
Data set [5] concerns HepG2. Nature of the data set: Induction of glucose uptake in human insulin resistant HepG2 cells at 10 uM incubated for 24 hrs by GOD-POD method relative to control. It counts as functional.
Data set [6] has as its system HepG2. Put plainly: Induction of glucose uptake in human insulin resistant HepG2 cells at 500 uM incubated for 24 hrs by GOD-POD method relative to control. Type of data set: functional, cell-based.

As usually defined, the IC50 is the concentration that gives 50% inhibition. What is called inhibition is the relative decrease from the control value, in per cent. Turning to `COc1cc2c(c(O)c1CC=C(C)C)C(=O)C(c1ccc(O)c(CC=C(C)C)c1O)CO2` (configuration not stated), the IC50 in data set [1] was 4.3 µM. Besides, the inhibition in data set [2] is > 60%; in the data set filed under Homo sapiens it was > 40%. Also, in data set [3], the viability at 10 µM was 80 to 110%.

In the case of `Oc1ccc2c(c1)OC[C@@H](c1cc3c(cc1O)OCO3)C2`, in data set [4], the IC50 stood at 3.8 µM.

Consider `CC(C)=CCc1cc([C@@H]2CC(=O)c3c(O)cc(O)c(CC=C(C)C)c3O2)ccc1O` [LESPEDEZAFLAVANONE B], for which the IC50 in data set [1] was found to be 2.1 µM. The inhibition is > 60% in data set [2] and > 40% in the data set filed under Homo sapiens. Moreover, the viability at 10 µM in data set [3] was in the range of 80 to 110%.

For the compound `COc1c(CC=C(C)C)c(O)cc2c1[C@@H]1Oc3cc4c(cc3[C@@H]1CO2)C=CC(C)(C)O4`, the IC50 in data set [1] was determined as 4.8 µM. For the same compound, the values for the inhibition (in data set [2]; in the data set filed under Homo sapiens) were > 60% and > 40%, respectively. Moreover, the viability at 10 µM in data set [3] was in the range of 80 to 110%.

As to `O=c1c(O)c(-c2ccc(O)cc2)oc2cc(O)cc(O)c12` [KAEMPFEROL], the inhibition is > 60% in data set [2] and > 40% in the data set filed under Homo sapiens. Moreover, the viability at 10 µM in data set [3] is 80 to 110%. Further, the Activity with HepG2 [5] is recorded as >80%.

With `CN(C)C(=N)NC(=N)N`, the outcome in the data set with HepG2 [6] was Active.

`CC(C)=CCc1cc(-c2oc3cc(O)c(CC=C(C)C)c(O)c3c(=O)c2O)ccc1O` gave an IC50 in data set [4] of 3.2 µM.

For `CC(C)=CCc1c(O)cc2c(c1O)C(=O)[C@@](O)(c1ccc(O)c3c1OC(C)(C)C=C3)CO2`, the IC50 in data set [1] is 5.9 µM; in data set [4], 20.1 µM. Besides, the inhibition in data set [2] is > 60%; in the data set listed under Homo sapiens, > 40%. Also, the viability at 10 µM in data set [3] was 80 to 110%.

In turn, `O=C(/C=C/c1ccc(O)cc1)c1ccc(O)cc1O` [ISOLIQUIRITIGENIN] had an IC50 in data set [4] of 5.6 µM. Further, the figures for the inhibition (in data set [2]; in the data set filed under Homo sapiens) were > 60% and > 40%, respectively. In data set [3], the viability at 10 µM lay within 80 to 110%.

Consider `CC(C)=CCc1cc(-c2coc3cc(O)c(CC=C(C)C)c(O)c3c2=O)cc(O)c1O`, for which the IC50 in data set [1] worked out at 7.7 µM.

In the case of `COc1c(CC=C(C)C)c(O)cc2c1-c1oc3cc(O)ccc3c1CO2`, the IC50 turned out to be 8.3 µM in data set [1] and 0.3 µM in data set [4]. For the same compound, the inhibition is > 60% in data set [2] and > 40% in the data set listed under Homo sapiens. The viability at 10 µM in data set [3] lay within 80 to 110%. In the data set with HepG2 [5], the Activity is given as >80%.

With `CC(C)=CCc1c(O)ccc(-c2coc3c(CC=C(C)C)c(O)cc(O)c3c2=O)c1O`, in data set [1], the IC50 worked out at 7 µM.

With `CC(C)=CCc1c(O)ccc(-c2coc3cc(O)c(CC=C(C)C)c(O)c3c2=O)c1O`, in data set [1], the IC50 was 7.5 µM. For the same compound, the inhibition was > 60% in data set [2] and > 40% in the data set filed under Homo sapiens. Further, in data set [3], the viability at 10 µM was in the range of 80 to 110%.

`COc1ccc(-c2coc3cc(O)cc(O)c3c2=O)cc1` [BIOCHANIN] yielded an IC50 in data set [4] of 3.8 µM. Besides, the figures for the inhibition (in data set [2]; in the data set listed under Homo sapiens) were > 60% and > 40%, respectively. The viability at 10 µM in data set [3] is 80 to 110%.

As to `COc1c(CC=C(C)C)c(O)cc2c1[C@@H]1Oc3cc(O)c(CC=C(C)C)cc3[C@@H]1CO2`, in data set [1], the IC50 stood at 4.4 µM.

As to `COc1cc2occ(-c3ccc(O)cc3O)c(=O)c2c(O)c1CC=C(C)C`, the IC50 in data set [1] was found to be 5.3 µM.

Regarding `COc1c(CC=C(C)C)c(O)cc2oc(-c3ccc(O)cc3O)cc12` [LICOCOUMARONE], the inhibition was > 60% in data set [2] and 61.2% in the data set listed under Homo sapiens. The viability at 10 µM in data set [3] is 80 to 110%. Besides, the Activity in the data set on HepG2 [5] is reported as >80%.

Turning to `COc1cc2oc(-c3ccc(O)cc3O)cc2c(OC)c1CC=C(C)C`, the IC50 in data set [1] stood at 3.3 µM. The inhibition in data set [2] was > 60%; in the data set filed under Homo sapiens, > 40%. Besides, in data set [3], the viability at 10 µM lay in the range of 80 to 110%.

As to `COc1cc(O)ccc1-c1cc2c(OC)c(CC=C(C)C)c(O)cc2o1`, the IC50 in data set [1] is 5.3 µM. The inhibition is > 60% in data set [2] and > 40% in the data set listed under Homo sapiens. Further, the viability at 10 µM in data set [3] is 80 to 110%.

As for `O=c1c(-c2ccc(O)cc2)coc2cc(O)ccc12` [DAIDZEIN], the inhibition was > 60% in data set [2] and > 40% in the data set listed under Homo sapiens. The viability at 10 µM in data set [3] lay in the range of 80 to 110%. Further, in the data set with HepG2 [5], the Activity is >80%.

On to `COc1cc2c(c(O)c1CC=C(C)C)C(=O)C(c1ccc(O)cc1O)CO2` (configuration not stated), for which the figures for the inhibition (in data set [2]; in the data set filed under Homo sapiens) were > 60% and > 40%, respectively. The viability at 10 µM in data set [3] was 80 to 110%. Besides, the Activity with HepG2 [5] is on record as >80%.

Take `COc1cc2c(c(O)c1CC=C(C)C)C(=O)[C@H](c1ccc(O)cc1)CO2`: the values for the inhibition (in data set [2]; in the data set listed under Homo sapiens) were > 60% and > 40%, respectively. Also, in data set [3], the viability at 10 µM was in the range of 80 to 110%. Besides, the Activity with HepG2 [5] amounted to 95%.

On to `COc1c(CC=C(C)C)c(O)cc2c1C[C@H](c1ccc(O)c(CC=C(C)C)c1O)CO2` [LICORICIDIN], for which the IC50 in data set [1] came to 5.9 µM.

`COc1c(CC=C(C)C)c(O)cc2oc(=O)c(-c3ccc(O)cc3O)cc12` [GLYCYCOUMARIN] came in with a 50% inhibitory concentration (IC50) in data set [4] of 0.1 µM. Further, the inhibition in data set [2] is > 60%; in the data set listed under Homo sapiens, > 40%. In addition, the viability at 10 µM in data set [3] fell in the range of 80 to 110%.

For `CC(C)=CCc1c(O)ccc(-c2cc3ccc(O)cc3o2)c1O` [2'-O-DEMETHYLBIDWILLOL B], the IC50 was found to be 9.2 µM in data set [1] and 8.6 µM in data set [4]. The inhibition in data set [2] was > 60%; in the data set listed under Homo sapiens, 61.7%. For the same compound, the viability at 10 µM in data set [3] fell in the range of 80 to 110%.

For the compound `C=C(C)[C@@H](O)Cc1c(O)ccc([C@@H]2COc3cc(OC)c(CC=C(C)C)c(OC)c3C2)c1O`, in data set [1], the IC50 was 6.7 µM. Further, the results for the inhibition (in data set [2]; in the data set listed under Homo sapiens) were > 60% and > 40%, respectively. In addition, in data set [3], the viability at 10 µM is 80 to 110%.

On to `C[C@H]1O[C@H](O[C@H]2[C@H](O)[C@@H](O)[C@@H](O[C@H]3[C@H](O)[C@@H](O)C(O)O[C@@H]3CO)O[C@@H]2CO)[C@H](O)[C@@H](O)[C@@H]1N[C@H]1C=C(CO)[C@@H](O)[C@H](O)[C@H]1O` (some centres not stated) [ACARBOSE], for which, in data set [4], the IC50 was 166 µM.

Take `CC(C)=CCc1c(O)c(CC=C(C)C)c2occ(-c3ccc(O)cc3)c(=O)c2c1O`: the IC50 in data set [1] is 2.3 µM; in data set [4], 16.3 µM.
